# Source: patent US20210046082A1, “CRYSTALLINE FORMS OF QUINOLINE ANALOGS AND SALTS THEREOF, COMPOSITIONS, AND THEIR METHODS FOR USE” (Senhwa Biosciences, Inc., priority 2019, published 2021)
# Legend:
# metastatic breast cancer = test: Evaluation of predictive biomarkers of response to Compound I in patients; format: in vivo, human
# Protocol: The duration on therapy at each dose level for evaluable patients is depicted in FIG. 15. 18 patients were diagnosed with metastatic breast cancer. […] This study was conducted to evaluate predictive biomarkers of response to Compound I and to explore the relationship between germline HRD aberrations and outcomes of Compound I treatments.
# BRCA deficient cells = test: Toxicity against BRCA deficient cells; format: cell-based; details: cell lines of different genetic backgrounds (colon, breast and ovary), mouse and human
# [1] = system: BRCA2 knockout tumor cells; test: Xenograft model, BRCA2 knockout vs isogenic wild type; format: in vivo; details: BRCA2 knockout tumor cells in xenograft model compared with isogenic wild type control cells
# [2] = Quick solubility analysis in pH 4.5 buffer; format: physicochemical; details: pH 4.5 buffer solution (25 mM sodium acetate, 25° C.), filtered, LC, pH changed to 5-6
# Protocol: A quick solubility analysis was conducted on Compound I Polymorphs A and J (Table 3). Each sample was suspended in pH 4.5 buffer solution (25 mM sodium acetate, 25° C.) for 10 minutes and then filtered for LC (liquid chromatography) analysis.
# [3] = Polymorphic equilibrium and transformation study in MeOH/PPW at 65° C. (XRPD); format: physicochemical
# Protocol: Polymorphic equilibrium studies were performed using Compound I Polymorph A and Compound I Polymorph J. To a 3-neck 250 mL flask equipped with a 3 cm stir bar and N2 inlet, a 1:1 mixture of Compound I Polymorph A (5 g) and Compound I Polymorph J (5 g, sample shown in FIG. 1), MeOH (112.5 mL, 11.25 vol) and purified process water (PPW, 37.5 mL, 3.75 vol) were charged. The resulting mixture was stirred at room temperature for 10 min, and then heated to 65° C. and sampled at 2 hrs, 4 hrs, and 6 hrs and analyzed by XRPD analysis as shown in FIG. 7.
# A polymorphic transformation study was also performed. To a 20 mL vial containing a 2 cm stir bar, Compound I Polymorph J (0.5 g, sample shown in FIG. 1), MeOH (5.6 mL, 11.25 vol) and PPW (1.9 mL, 3.75 vol) were charged. The resulting mixture was heated to 65° C. for 6 hrs. Upon completion, the slurry was filtered through a Buchner funnel, and the solid was collected for XRPD analysis as shown in FIG. 8.
# As described in Example 1, Polymorph J crystals precipitated out around pH 9-10 during final pH adjustment step to pH 12-13. Polymorph J is then heated to 60° C. to 65° C. in MeOH/PPW (3:1) for approximately 4 hours and maintains its polymorphic form. Thus, substantially pure (polymorphic purity) Polymorph J in MeOH/PPW (3:1) is stable at 65° C. for at least 4 hours.
# [4] = Heating of Polymorph J without solvent at 205° C.; format: physicochemical; details: 30 minutes
# [5] = Stability test at 25° C./60% RH for 18 months (XRPD, DSC); format: physicochemical
# Protocol: Further, stability of Polymorph J was analyzed in solution having the composition:
# Sample Preparation: 37.5 kg of WFI was added to the compounding vessel at a temperature in the range of 15 to 30° C. Vigorously sparge WFI with nitrogen for no less than 30 minutes by placing the nitrogen sparging tubing at the bottom of the pressure vessel. Continue sparging in the vessel until dissolved oxygen content was <1 ppm. In a second pressure vessel was added 20.0 kg nitrogen sparged WFI and sucrose and mixed until dissolved while continuing nitrogen sparging, not less than 15 minutes. Nitrogen sparging continued as necessary until dissolved oxygen content was <1 ppm of the sucrose solution. To the sucrose solution, 813.8 g of 2 M HCl solution was slowly added and mixed for no less than 10 minutes after addition was complete. Add Compound I into the sucrose solution vessel and rinse container that contained Compound I with nitrogen sparged WFI. Mix solution until dissolved (no less than 15 min). Add 43.5 mL of 2 M HCl and mix for no less than 5 minutes. If solution is not visually dissolved, add another portion of 43.5 mL of 2M HCl and mix for no less than 5 minutes. Adjust pH, if necessary to 4.4-4.6 with 2M HCl or 1M NaOH solution prepared using nitrogen sparged WFI. Mix solution after each addition of 2M HCl or 1M NaOH. Adjust volume with nitrogen-sparged WFI as necessary. Pull a 10 mL sample to measure pH. If necessary, re-adjust pH to 4.4-4.6 using 2M HCl or 1M NaOH solution prepared using nitrogen sparged WFI. Filtration and filling directly proceeded this step. No material was stored overnight. […]
# Aseptic filling of the sterile solution: The Compound I sterile solution was filled into 20-cc clean, de-pyrogenated glass vials, with periodic weight checks to assure that the target fill quantity (5.05 g/vial) was maintained, and the vials were semi-stoppered with sterile elastomeric closures to provide the sample for stability analysis.
# The sample was stored at 25° C. in 60% relative humidity (RH) for 18 months. After 18 months, the sample was analyzed by XRPD and DSC (see FIGS. 10 and 11).
# [6] = Polymorph conversion on heating in MeOH/PPW (3:1) under neutral conditions; format: physicochemical; details: about 60-65° C., 6 hours instead of 4
# Protocol: In the procedure discussed in Example 1, the wet cake obtained in the Neutralization/Polymorph Formation step was vacuum dried at no more than 65° C. Then the dried Compound I (dried wet cake) was dissolved in DCM/MeOH (3/1, v/v) and purified on silica gel column eluting with DCM/MeOH (3/1, v/v). The fractions containing Compound I was collected and passed through an in-line filter. Then Compound I was precipitated from DCM/MeOH via solvent-swap with MeOH (under vacuum with the jacket temperature of no more than 30C). After the DCM was distilled off, Compound I in MeOH was filtered and the wet cake was washed with methanol. The wet cake was vacuum dried at no more than 65° C. Then the dried Compound I, which existed in Polymorph E, was stirred in MeOH/PPW (3:1) and heated at about 60° C. to about 65° C. for 4 hours. Then the temperature was cooled down to 20° C. to 30° C. and stirred at that temperature for no longer than 1 hour. […] In the final heating step, if the mixture is heated for 6 hours instead of 4 hours, Polymorph A was observed.
# It is believed that Polymorph K was transformed from Polymorph E under neutral conditions. […] Thus, without bound to be any theory, Polymorph K is believe to be a metastable form between Polymorphs E and A.
compound,measurement,setting,value
"Cc1cnc(CNC(=O)c2c(=O)c3ccc(N4CCCN(C)CC4)nc3n3c2sc2ccccc23)cn1 [Compound I, 2-(4-Methyl-[1,4]diazepan-1-yl)-5-oxo-5H-7-thia-1,11b-diaza-benzo[c]fluorene-6-carboxylic acid (5-methyl-pyrazin-2-ylmethyl)-amide]",Response to treatment,"metastatic breast cancer; patient with PALB2 mutation and BRCA2 mutation, 650 mg/m^2 on Day 1, Day 8, Day 15 of a 28 day cycle",partial response (PR)
same,Tumor shrinkage,"metastatic breast cancer; patients with BRCA2 mutation, dose greater than or equal to 150 mg/m^2",tumor shrinkage were observed
same,Toxicity against BRCA deficient cells,BRCA deficient cells,specific toxicity against BRCA deficient cells
same,Therapeutic index of activity,[1],wide therapeutic index of activity
"Cc1cnc(CNC(=O)c2c(=O)c3ccc(N4CCCN(C)CC4)nc3n3c2sc2ccccc23)cn1 [Polymorph A, 2-(4-Methyl-[1,4]diazepan-1-yl)-5-oxo-5H-7-thia-1,11b-diaza-benzo[c]fluorene-6-carboxylic acid (5-methyl-pyrazin-2-ylmethyl)-amide]",solubility at 10 min,"[2]; sodium acetate buffer, 25 °C, pH 4.5, aqueous buffer, thermodynamic from solid",29.3 mg/mL
same,Relative thermodynamic stability of polymorphs,"[3]; MeOH/PPW, 65° C.",more thermodynamically stable than Polymorph J
"Cc1cnc(CNC(=O)c2c(=O)c3ccc(N4CCCN(C)CC4)nc3n3c2sc2ccccc23)cn1 [Polymorph J, 2-(4-Methyl-[1,4]diazepan-1-yl)-5-oxo-5H-7-thia-1,11b-diaza-benzo[c]fluorene-6-carboxylic acid (5-methyl-pyrazin-2-ylmethyl)-amide]",Solubility,[2]; 10 minutes,28.6 mg/mL
same,Polymorphic form by XRPD after heating,"[3]; MeOH/PPW, 65° C., 6 hrs",converted to Polymorph A
same,Time polymorphic form is stable,[3]; substantially pure Polymorph J in MeOH/PPW (3:1) at 65° C.,at least 4 hours
same,Crystallinity by XRPD after heating,[4],less crystalline
same,Time stable on storage,[5],at least 18 months
same,Shift of second endothermic DSC peak after storage versus initial sample,[5]; 18 months,about 5 °C
same,XRPD pattern after storage,[5]; 18 months,substantially similar to the XRPD pattern of the initial sample
"Cc1cnc(CNC(=O)c2c(=O)c3ccc(N4CCCN(C)CC4)nc3n3c2sc2ccccc23)cn1 [Polymorph K, 2-(4-Methyl-[1,4]diazepan-1-yl)-5-oxo-5H-7-thia-1,11b-diaza-benzo[c]fluorene-6-carboxylic acid (5-methyl-pyrazin-2-ylmethyl)-amide]",Polymorphic conversion upon prolonged heating,[6],converts to Polymorph A
